Results reported in US11661437B2, “Steroid derivative regulators, method for preparing the same, and uses thereof” (priority 2018, dated 2023).

Experiments:
GABA-A receptor = test: 35S-TBPS binding assay on rat cerebral cortex cell membrane; set-up: species or system Sprague-Dawley rat; conditions: 2 nM 35S-TBPS, GABA added, read-out: 35S-TBPS bindng test, IC50 on inhibiting the TBPS binding activity
Outline: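 Male Sprague-Dawley rat cortical membranes in PBS were preincubated 5 min at 25 °C with compound (8-point 3-fold series […], 1% DMSO), then with GABA ([…]). 2 nM 35S-TBPS was added for 20 h at 4 °C, followed by GF/C filtration and scintillation counting. % inhibition was normalised to DMSO and 10 μM reference controls, with IC50 from a 4-parameter fit.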

ICR mice = test: In vivo pharmacodynamic test in the forced swimming model in mice; conditions: for immobility time during the latter four minutes compared with that of the model group: 10 mg/kg p.o.; for Mean (immobility, %) / Mean (immobility, s): 10 mpk p.o.; for Mean (immobility, %): floating time percentage = 100*floating time/240 s; for Mean (immobility, s): latter four minutes of 6 min swim
Procedure: The antidepressant effect of the compound was evaluated by the forced swimming model in mice.
Male ICR mice (25-35 g) were adapted in the test environment for 3 days before the forced swimming test.
According to the test design, the mice were randomly grouped on the day before the test according to body weight, with 12 mice in each group. Before the test, the compounds of each example were administrated intragastrically according to the Tmax thereof in the brain in mice pharmacokinetic test as follows:
1) Model group (0.5% CMC-Na+1% Tween 80 solution, p.o., 10 mL/kg);
2) Compounds of Example 2, Example 5, Example 7, Example 18, Example 23, Example 26 and Example 50 (10 mg/kg, p.o., 10 mL/kg).
When being administrated, the compounds of each example were suspended in 0.5% CMC-Na-1% Tween 80 solution to the desired concentration.
0.5-1 hour after administration, ICR mice were placed in a forced swimming device (transparent glass drum (water depth 18 cm, water temperature 25-26° C.), one mouse per tank) and forced to swim for 6 minutes. The forced swimming device recorded the floating time of the ICR mice during the entire 6 minutes, and the data of the latter four minutes were used for data analysis. The mice were taken out immediately after the swimming test, wiped dry and put back in their original cages.
Note: The criterion for determining the immobility time is that the mouse stops struggling in water and floats, and there are only slight limb movements to keep the head floating on the water.
3.4 Data Analysis Floating time percentage=100*floating time/240 s.

Structure (SMILES)	IC50 (GABA-A receptor)	immobility time during the latter four minutes compared with that of the model group (ICR mice)	Mean (immobility, %) (ICR mice)	Mean (immobility, s) (ICR mice)
C[C@@]1(O)CC[C@@]2(F)[C@H](CC[C@H]3[C@@H]4CC[C@H](C(=O)Cn5cc(C#N)cn5)[C@@]4(C)CC[C@@H]32)C1 [Example 2, 1-(2-((3R,5R,8S,9S,10R,13S,14S,17S)-10-Fluoro-3-hydroxy-3,13-dimethylhexadecahydro-1H-cyclopenta[a]phenanthren-17-yl)-2-oxoethyl)-1H-pyrazole-4-carbonitrile]	11.8 nM	significantly different	36.39%	87.34 s
C[C@@]1(O)CC[C@@]2(F)[C@H](CC[C@H]3[C@@H]4CC[C@H](C(=O)CNc5ccc(F)cc5)[C@@]4(C)CC[C@@H]32)C1 [Example 23, 1-((3R,5R,8S,9S,10R,13S,14S,17S)-10-Fluoro-3-hydroxy-3,13-dimethylhexadecahydro-1H-cyclopenta[a]phenanthren-17-yl)-2-((4-fluorophenyl)amino)ethan-1-one]	30.9 nM	very significantly different	28.55%	68.51 s
C[C@@]1(O)CC[C@@]2(F)[C@H](CC[C@H]3[C@@H]4CC[C@H](C(=O)Cn5ccc(C(F)(F)F)n5)[C@@]4(C)CC[C@@H]32)C1 [Example 5, 1-((3R,5R,8S,9S,10R,13S,14S,17S)-10-Fluoro-3-hydroxy-3,13-dimethylhexadecahydro-1H-cyclopenta[a]phenanthren-17-yl)-2-(3-(trifluoromethyl)-1H-pyrazol-1-yl)ethan-1-one]	8.3 nM	very significantly different	27.11%	65.07 s
